In the OligoGym collection:
HELM strings list units from the 5' end as sugar, base in round brackets, then linkage (d deoxyribose, r ribose, m 2'-O-methyl, p phosphodiester). Strings are as the collection lists them; they lack the last nucleoside at the 3' end of the tested compound. [moe] = 2'-O-(2-methoxyethyl) (MOE); [sp] = phosphorothioate linkage; [m5C] = 5-methylcytosine

Target: APP
Experiment: mouse, dose not given
Settings: ASO

Substance	3 h FOB score [score 0-7]
RNA1{[moe](A)[sp].[moe](T)p.[moe](G)p.[moe](T)p.[moe](G)[sp].d(A)[sp].d(T)[sp].d(T)[sp].d(T)[sp].d([m5C])[sp].d(A)[sp].d([m5C])[sp].d(T)[sp].d(A)[sp].d(A)[sp].[moe]([m5C])p.[moe]([m5C])p.[moe](G)[sp].[moe](G)}$$$$ (last 3' nucleoside missing)	0
RNA1{[moe](T)[sp].[moe]([m5C])p.[moe](A)p.[moe](G)p.[moe]([m5C])[sp].d([m5C])[sp].d([m5C])[sp].d([m5C])[sp].d(A)[sp].d(A)[sp].d(A)[sp].d(A)[sp].d(G)[sp].d(A)[sp].d(A)[sp].[moe](T)p.[moe](G)p.[moe]([m5C])[sp].[moe]([m5C])}$$$$ (last 3' nucleoside missing)	0
RNA1{[moe](G)[sp].[moe](G)p.[moe](T)p.[moe](T)p.[moe](T)[sp].d(A)[sp].d([m5C])[sp].d([m5C])[sp].d(T)[sp].d(T)[sp].d(T)[sp].d(A)[sp].d(A)[sp].d([m5C])[sp].d(A)[sp].[moe](T)p.[moe](T)p.[moe]([m5C])[sp].[moe]([m5C])}$$$$ (last 3' nucleoside missing)	0.25
RNA1{[moe](G)[sp].[moe](T)p.[moe]([m5C])p.[moe]([m5C])p.[moe](A)[sp].d(A)[sp].d(A)[sp].d(A)[sp].d([m5C])[sp].d(A)[sp].d([m5C])[sp].d(A)[sp].d(G)[sp].d(T)[sp].d(A)[sp].[moe]([m5C])p.[moe](A)p.[moe](A)[sp].[moe]([m5C])}$$$$ (last 3' nucleoside missing)	1.67
RNA1{[moe](G)[sp].[moe]([m5C])p.[moe](A)p.[moe](T)p.[moe](T)[sp].d([m5C])[sp].d(T)[sp].d([m5C])[sp].d(T)[sp].d(T)[sp].d(A)[sp].d(T)[sp].d(A)[sp].d(T)[sp].d(T)[sp].[moe]([m5C])p.[moe]([m5C])p.[moe](T)[sp].[moe](T)}$$$$ (last 3' nucleoside missing)	0
RNA1{[moe](A)[sp].[moe](T)p.[moe](T)p.[moe]([m5C])p.[moe](T)[sp].d([m5C])[sp].d(T)[sp].d(T)[sp].d(A)[sp].d(T)[sp].d(A)[sp].d(T)[sp].d(T)[sp].d([m5C])[sp].d([m5C])[sp].[moe](T)p.[moe](T)p.[moe](A)[sp].[moe]([m5C])}$$$$ (last 3' nucleoside missing)	0.5
RNA1{[moe](G)[sp].[moe](G)p.[moe]([m5C])p.[moe](A)p.[moe](T)[sp].d([m5C])[sp].d(A)[sp].d([m5C])[sp].d(T)[sp].d(T)[sp].d(A)[sp].d([m5C])[sp].d(A)[sp].d(A)[sp].d(A)[sp].[moe]([m5C])p.[moe](T)p.[moe]([m5C])p.[moe](A)}$$$$ (last 3' nucleoside missing)	0
RNA1{[moe]([m5C])[sp].[moe](A)[sp].[moe](T)p.[moe]([m5C])p.[moe](A)[sp].d([m5C])[sp].d(T)[sp].d(T)[sp].d(A)[sp].d([m5C])[sp].d(A)[sp].d(A)[sp].d(A)[sp].d([m5C])[sp].d(T)[sp].[moe]([m5C])p.[moe](A)p.[moe]([m5C])[sp].[moe]([m5C])}$$$$ (last 3' nucleoside missing)	0
RNA1{[moe](G)[sp].[moe]([m5C])p.[moe](A)p.[moe](T)p.[moe](T)p.[moe]([m5C])[sp].d(T)[sp].d([m5C])[sp].d(T)[sp].d(T)[sp].d(A)[sp].d(T)[sp].d(A)[sp].d(T)[sp].d(T)[sp].d([m5C])[sp].[moe]([m5C])p.[moe](T)[sp].[moe](T)}$$$$ (last 3' nucleoside missing)	1.25
RNA1{[moe](G)[sp].[moe](T)p.[moe](A)p.[moe](T)p.[moe]([m5C])[sp].d([m5C])[sp].d(T)[sp].d([m5C])[sp].d(T)[sp].d(T)[sp].d(A)[sp].d(A)[sp].d(T)[sp].d(T)[sp].d([m5C])[sp].[moe]([m5C])p.[moe](T)p.[moe](A)[sp].[moe](T)}$$$$ (last 3' nucleoside missing)	0
RNA1{[moe]([m5C])[sp].[moe]([m5C])p.[moe](A)p.[moe](A)p.[moe](A)[sp].d(G)[sp].d(A)[sp].d(T)[sp].d(T)[sp].d([m5C])[sp].d([m5C])[sp].d(A)[sp].d([m5C])[sp].d(T)[sp].d(T)[sp].[moe](T)p.[moe]([m5C])p.[moe](T)[sp].[moe]([m5C])}$$$$ (last 3' nucleoside missing)	0
RNA1{[moe](G)[sp].[moe]([m5C])p.[moe](A)p.[moe](T)p.[moe](T)[sp].d([m5C])[sp].d(A)[sp].d([m5C])[sp].d(A)[sp].d(A)[sp].d([m5C])[sp].d(A)[sp].d([m5C])[sp].d(A)[sp].d([m5C])[sp].[moe](A)p.[moe](T)p.[moe]([m5C])[sp].[moe]([m5C])}$$$$ (last 3' nucleoside missing)	0.67
RNA1{[moe](G)[sp].[moe](G)p.[moe](A)p.[moe](A)p.[moe]([m5C])[sp].d(T)[sp].d([m5C])[sp].d(G)[sp].d(A)[sp].d(A)[sp].d([m5C])[sp].d([m5C])[sp].d(A)[sp].d([m5C])[sp].d([m5C])[sp].[moe](T)p.[moe]([m5C])p.[moe](T)[sp].[moe](T)}$$$$ (last 3' nucleoside missing)	2.5
RNA1{[moe](G)[sp].[moe]([m5C])p.[moe](T)p.[moe](A)p.[moe](T)[sp].d(G)[sp].d(A)[sp].d([m5C])[sp].d(A)[sp].d(A)[sp].d([m5C])[sp].d(A)[sp].d([m5C])[sp].d([m5C])[sp].d(G)[sp].[moe]([m5C])p.[moe]([m5C])p.[moe]([m5C])[sp].[moe](A)}$$$$ (last 3' nucleoside missing)	1
RNA1{[moe](A)[sp].[moe](G)p.[moe](A)p.[moe](T)p.[moe](A)[sp].d([m5C])[sp].d(T)[sp].d(T)[sp].d(G)[sp].d(T)[sp].d([m5C])[sp].d(A)[sp].d(A)[sp].d([m5C])[sp].d(G)[sp].[moe](G)p.[moe]([m5C])p.[moe](A)[sp].[moe](T)}$$$$ (last 3' nucleoside missing)	2.33
RNA1{[moe](A)[sp].[moe](A)p.[moe](G)p.[moe](G)p.[moe](G)[sp].d([m5C])[sp].d(A)[sp].d(T)[sp].d([m5C])[sp].d(A)[sp].d([m5C])[sp].d(T)[sp].d(T)[sp].d(A)[sp].d([m5C])[sp].[moe](A)p.[moe](A)p.[moe](A)[sp].[moe]([m5C])}$$$$ (last 3' nucleoside missing)	0
RNA1{[moe](G)[sp].[moe](A)p.[moe]([m5C])p.[moe](A)p.[moe]([m5C])[sp].d(T)[sp].d(T)[sp].d(T)[sp].d(T)[sp].d(A)[sp].d(T)[sp].d([m5C])[sp].d(T)[sp].d(T)[sp].d(G)[sp].[moe]([m5C])p.[moe](A)p.[moe]([m5C])[sp].[moe](T)}$$$$ (last 3' nucleoside missing)	2.33
RNA1{[moe]([m5C])[sp].[moe]([m5C])p.[moe](A)p.[moe](A)p.[moe](G)[sp].d(T)[sp].d(A)[sp].d(T)[sp].d(T)[sp].d(T)[sp].d(T)[sp].d([m5C])[sp].d([m5C])[sp].d(T)[sp].d(G)[sp].[moe]([m5C])p.[moe](A)p.[moe](T)[sp].[moe]([m5C])}$$$$ (last 3' nucleoside missing)	0
RNA1{[moe](T)[sp].[moe](T)p.[moe](T)p.[moe](A)p.[moe]([m5C])[sp].d([m5C])[sp].d(T)[sp].d(T)[sp].d(T)[sp].d(A)[sp].d(A)[sp].d([m5C])[sp].d(A)[sp].d(T)[sp].d(T)[sp].[moe]([m5C])p.[moe]([m5C])p.[moe](T)[sp].[moe]([m5C])}$$$$ (last 3' nucleoside missing)	0
RNA1{[moe](T)[sp].[moe](G)p.[moe](T)p.[moe](G)p.[moe]([m5C])[sp].d(A)[sp].d([m5C])[sp].d(A)[sp].d(T)[sp].d(A)[sp].d(A)[sp].d(A)[sp].d(A)[sp].d([m5C])[sp].d(A)[sp].[moe](G)p.[moe](G)p.[moe]([m5C])[sp].[moe](A)}$$$$ (last 3' nucleoside missing)	1
RNA1{[moe](G)[sp].[moe]([m5C])p.[moe](T)p.[moe]([m5C])p.[moe](A)[sp].d(G)[sp].d(A)[sp].d(G)[sp].d([m5C])[sp].d([m5C])[sp].d(A)[sp].d(G)[sp].d(G)[sp].d([m5C])[sp].d(G)[sp].[moe](A)p.[moe](G)p.[moe](T)[sp].[moe]([m5C])}$$$$ (last 3' nucleoside missing)	3
RNA1{[moe]([m5C])[sp].[moe](T)p.[moe](T)p.[moe](T)p.[moe](T)[sp].d(G)[sp].d(T)[sp].d(A)[sp].d(T)[sp].d([m5C])[sp].d(A)[sp].d(T)[sp].d(A)[sp].d(A)[sp].d(A)[sp].[moe](T)p.[moe](G)p.[moe](A)[sp].[moe](A)}$$$$ (last 3' nucleoside missing)	0.5
RNA1{[moe](T)[sp].[moe](T)p.[moe](G)p.[moe](G)p.[moe](A)[sp].d(T)[sp].d(T)[sp].d([m5C])[sp].d(A)[sp].d(T)[sp].d([m5C])[sp].d(T)[sp].d([m5C])[sp].d([m5C])[sp].d(A)[sp].[moe](T)p.[moe](A)p.[moe]([m5C])[sp].[moe](T)}$$$$ (last 3' nucleoside missing)	0
RNA1{[moe](G)[sp].[moe](T)p.[moe](G)p.[moe](A)p.[moe]([m5C])[sp].d(T)[sp].d(T)[sp].d(A)[sp].d(T)[sp].d(A)[sp].d([m5C])[sp].d(T)[sp].d([m5C])[sp].d(A)[sp].d(A)[sp].[moe](T)p.[moe](G)p.[moe](A)[sp].[moe]([m5C])}$$$$ (last 3' nucleoside missing)	0
RNA1{[moe](G)[sp].[moe](T)p.[moe](A)p.[moe]([m5C])p.[moe](T)[sp].d([m5C])[sp].d(A)[sp].d(T)[sp].d(T)[sp].d(T)[sp].d(T)[sp].d(T)[sp].d(G)[sp].d(T)[sp].d(T)[sp].[moe]([m5C])p.[moe](T)p.[moe](T)[sp].[moe](A)}$$$$ (last 3' nucleoside missing)	0.67
